Target: T1, FSHR (Homo sapiens, UniProt P23945)
T1 construct: expressed in transfected cells; host or cells: CHO cells, clone Cho-FSHR-LUC-1-1-43
T1 sequence (P23945 18-695): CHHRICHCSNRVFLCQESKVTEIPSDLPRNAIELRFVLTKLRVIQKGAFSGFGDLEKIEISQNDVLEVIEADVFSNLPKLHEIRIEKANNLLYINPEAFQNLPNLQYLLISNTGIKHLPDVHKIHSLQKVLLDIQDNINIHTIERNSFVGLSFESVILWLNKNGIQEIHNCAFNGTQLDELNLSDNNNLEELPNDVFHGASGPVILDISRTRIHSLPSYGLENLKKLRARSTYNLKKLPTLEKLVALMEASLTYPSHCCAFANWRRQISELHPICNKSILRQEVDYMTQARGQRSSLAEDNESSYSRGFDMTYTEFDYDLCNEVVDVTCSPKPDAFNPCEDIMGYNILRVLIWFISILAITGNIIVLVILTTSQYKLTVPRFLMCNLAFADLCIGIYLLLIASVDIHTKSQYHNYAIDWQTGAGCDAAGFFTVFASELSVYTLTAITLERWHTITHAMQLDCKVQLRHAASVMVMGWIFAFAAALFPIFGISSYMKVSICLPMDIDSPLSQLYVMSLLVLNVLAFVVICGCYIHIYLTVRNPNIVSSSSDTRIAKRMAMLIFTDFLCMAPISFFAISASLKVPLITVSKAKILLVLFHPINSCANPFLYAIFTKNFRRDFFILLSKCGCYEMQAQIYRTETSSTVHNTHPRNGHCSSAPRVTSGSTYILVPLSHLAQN
Test: EC50 of cyclic AMP production in CHO FSHR cells + EC20 FSH (Assay A)
Assay type: cell-based
Conditions: CHO-FSHR-LUC cells, in presence of EC20 FSH, cAMP HTRF, 1 h 37° C.
Protocol: EC50 of cyclic AMP production in CHO FSHR cells+EC20 FSH (Assay A)
2500 Cho-FSHR-LUC-1-1-43 cells were plated per well in 5 μl of phenol red free DMEM/F12+1% FBS. […] Cells were assayed by adding 100 μl of 2×EC20 FSH/IBMX in DMEM/F12+0.1% BSA) by Multidrop to 2 μl of test compound stamped in 384 well plates (compounds are diluted 1:50). […] The compound plate map was as follows: Column 1: 2 μl of DMSO; Column 2: 2 μl of DMSO; Columns 3-12 and 13-24: 2 μl of test compound, diluted 1:4 in 100% DMSO, or 2 μl of FSH, diluted 1:4 in DMEM/F12+0.1% BSA. The starting concentration for FSH was 50 nM (final concentration was 0.5 nM). […] 10 μl of mixed HTRF (CisBio #62AM4PEC) reagents were added per well and incubated at room temperature for 1 h. The plates were read on Envision using the cAMP HTRF—low volume 384 well protocol. […] Values given in percent (%) indicate the percental effect (response) at a certain concentration of agonist relative to the maximum response of the FSH standard.

EC50 | Compound
0.1 to 1 µM | COc1cc2c(cc1OC(C)C)-n1c(C3CCCC3)nc(C(=O)N3CCOCC3(C)C)c1CC2 [Compound 83, (1-Cyclopentyl-8-isopropoxy-7-methoxy-4,5-dihydro-imidazo[1,5-a]quinolin-3-yl)-(3,3-dimethyl-morpholin-4-yl)-methanone]
0.1 to 1 µM | COc1cc2c(cc1OC(C)C)-n1c(C3=CCCCO3)nc(C(=O)N3CCOCC3(C)C)c1CC2 [Compound 50]
0.1 to 1 µM | COc1cc2c(cc1OC(C)C)-n1c(-c3cc(Cl)ccc3Cl)nc(C(=O)N(C)C(C)(C)C)c1CC2 [Compound 65]
1 to 5 µM | COc1cc2c(cc1CC(C)C)-n1c(-c3cccn3C(=O)OC(C)(C)C)nc(C(=O)N3CCOCC3(C)C)c1CC2 [Compound 26, 2-[3-(3,3-Dimethyl-morpholine-4-carbonyl)-8-isobutyl-7-methoxy-4,5-dihydro-imidazo[1,5-a]quinolin-1-yl]-pyrrole-1-carboxylic acid tert-butyl ester]
0.1 to 1 µM | [2H]C([2H])([2H])N(C(=O)c1nc(-c2cccs2)n2c1CCc1cc(OC)c(-c3ccn(C)n3)cc1-2)C1(C)COC1 [Compound 130, 7-Methoxy-8-(1-methyl-1H-pyrazol-3-yl)-1-thiophen-2-yl-4,5-dihydro-imidazo[1,5-a]quinoline-3-carboxylic acid methyl-d3-(3-methyl-oxetan-3-yl)-amide]
> 5 µM | COc1cc2c(cc1OC(C)C)-n1c(-c3cn(C)nn3)nc(C(=O)N3CCOCC3(C)C)c1CC2 [Compound 52]
< 0.1 µM | COc1cc2c(cc1OC(C)C)-n1c(Br)nc(C(=O)N3CCCN(C(=O)C4CCC4)CC3)c1CC2 [Compound 3]
0.1 to 1 µM | COc1cccc(-c2nc(C(=O)N3CCOCC3(C)C)c3n2-c2cc(OC(C)C)c(OC)cc2CC3)c1 [Compound 115]
1 to 5 µM | COc1cc2c(cc1OC(C)C)-n1c(-c3cc(Cl)ccc3OC(F)(F)F)nc(C(=O)N3CCOCC3(C)C)c1CC2 [Compound 117]
> 5 µM | COc1cc2c(cc1OC(C)C)-n1c(C3=CCNCC3)nc(C(=O)N3CCOCC3(C)C)c1CC2 [Compound 131]
< 0.1 µM | COc1cc2c(cc1OC(C)C)-n1c(-c3ccc(F)s3)nc(C(=O)N(C)C(C)(C)C)c1CC2 [Compound 14]
> 5 µM | COc1cc2c(cc1CC(C)C)-n1c(-c3cc[nH]n3)nc(C(=O)N(C)C(C)(C)C)c1CC2 [Compound 12, 8-Isobutyl-7-methoxy-1-(1H-pyrazol-3-yl)-4,5-dihydro-imidazo[1,5-a]quinoline-3-carboxylic acid tert-butyl-methyl-amide]
1 to 5 µM | COc1cc(-c2nc(C(=O)N3CCOCC3(C)C)c3n2-c2cc(OC(C)C)c(OC)cc2CC3)ccc1F [Compound 108]
1 to 5 µM | COc1cc2c(cc1OC(C)C)-n1c(-c3ccc(C#N)cc3)nc(C(=O)N(C)C(C)(C)C)c1CC2 [Compound 64]
0.1 to 1 µM | COc1cc2c(cc1OC(C)C)-n1c(-c3ccc(Cl)c(F)c3)nc(C(=O)N3CCOCC3(C)C)c1CC2 [Compound 109]
> 5 µM | COc1cc2c(cc1OC(C)C)-n1c(-c3ccn(C)n3)nc(C(=O)N3CCOCC3(C)C)c1CC2 [Compound 43]
1 to 5 µM | COc1cc2c(cc1OC(C)C)-n1c(-c3cnc(C)s3)nc(C(=O)N(C)C(C)(C)C)c1CC2 [Compound 16]
0.1 to 1 µM | COc1cc2c(cc1OC(C)C)-n1c(-c3ccccc3Cl)nc(C(=O)N(C)C(C)(C)C)c1CC2 [Compound 67]
0.1 to 1 µM | COc1cc2c(cc1OC(C)C)-n1c(-c3cccc(Cl)c3Cl)nc(C(=O)N3CCOCC3(C)C)c1CC2 [Compound 142]
> 5 µM | COc1cc2c(cc1OC(C)C)-n1c(-c3cnn(C)c3C)nc(C(=O)N3CCOCC3(C)C)c1CC2 [Compound 35]

EC50 | Compound
1 to 5 µM | COc1cc2c(cc1OC(C)C)-n1c(-c3cccc4[nH]ncc34)nc(C(=O)N3CCOCC3(C)C)c1CC2 [Compound 81]
1 to 5 µM | COc1cc2c(cc1OC(C)C)-n1c(-c3ccc(F)c(Cl)c3F)nc(C(=O)N3CCOCC3(C)C)c1CC2 [Compound 123]
1 to 5 µM | COc1cc2c(cc1CC(C)C)-n1c(C3CCN(C)CC3)nc(C(=O)N(C)C(C)(C)C)c1CC2 [Compound 22, N-(tert-butyl)-8-isobutyl-7-methoxy-N-methyl-1-(1-methylpiperidin-4-yl)-4,5-dihydroimidazo[1,5-a]quinoline-3-carboxamide]
1 to 5 µM | COc1ccc(-c2nc(C(=O)N3CCOCC3(C)C)c3n2-c2cc(OC(C)C)c(OC)cc2CC3)cc1C [Compound 125]
< 0.1 µM | COc1cc2c(cc1CC(C)C)-n1c(-c3cccs3)nc(C(=O)N3CCOCC34COC4)c1CC2 [Compound 56, (2,8-Dioxa-5-aza-spiro[3.5]non-5-yl)-(8-isobutyl-7-methoxy-1-thiophen-2-yl-4,5-dihydro-imidazo[1,5-a]quinolin-3-yl)-methanone]
0.1 to 1 µM | COc1cc2c(cc1NC(=O)C(C)C)-n1c(-c3cccs3)nc(C(=O)N3CCOCC3(C)C)c1CC2 [Compound 78, N-[3-(3,3-Dimethyl-morpholine-4-carbonyl)-7-methoxy-1-thiophen-2-yl-4,5-dihydro-imidazo[1,5-a]quinolin-8-yl]-isobutyramide]
0.1 to 1 µM | COc1cc2c(cc1OC(C)C)-n1c(-c3cccc(C(F)(F)F)c3)nc(C(=O)N(C)C(C)(C)C)c1CC2 [Compound 68]
> 5 µM | COc1cc2c(cc1OC(C)C)-n1c(-c3cc[nH]n3)nc(C(=O)N3CCOCC3(C)C)c1CC2 [Compound 69]
0.1 to 1 µM | COc1cc2c(cc1OC(C)C)-n1c(-c3ccsc3C)nc(C(=O)N3CCOCC3(C)C)c1CC2 [Compound 106]
1 to 5 µM | COc1cc2c(cc1CC(C)C)-n1c(-c3cccs3)nc(C(=O)NCCNC(C)=O)c1CC2 [Compound 48, 8-Isobutyl-7-methoxy-1-thiophen-2-yl-4,5-dihydro-imidazo[1,5-a]quinoline-3-carboxylic acid (2-acetylamino-ethyl)-amide]
0.1 to 1 µM | COc1cc2c(cc1OC(C)C)-n1c(-c3ccsc3)nc(C(=O)N(C)C(C)(C)C)c1CC2 [Compound 5]
1 to 5 µM | COc1cc2c(cc1CC(C)C)-n1c(-c3cn[nH]c3C)nc(C(=O)N3CCOCC3(C)C)c1CC2 [Compound 27, (3,3-Dimethyl-morpholin-4-yl)-[8-isobutyl-7-methoxy-1-(5-methyl-1H-pyrazol-4-yl)-4,5-dihydro-imidazo[1,5-a]quinolin-3-yl]-methanone]
1 to 5 µM | COc1cc2c(cc1-c1ccn(C)c1)-n1c(-c3cccs3)nc(C(=O)NC3(C)COC3)c1CC2 [Compound 98, 7-Methoxy-8-(1-methyl-1H-pyrrol-3-yl)-1-thiophen-2-yl-4,5-dihydro-imidazo[1,5-a]quinoline-3-carboxylic acid (3-methyl-oxetan-3-yl)-amide]
0.1 to 1 µM | COc1cc2c(cc1OC(C)C)-n1c(-c3cccc(F)c3)nc(C(=O)N(C)C(C)(C)C)c1CC2 [Compound 66]
> 5 µM | COCCCc1nc(C(=O)N2CCOCC2(C)C)c2n1-c1cc(OC(C)C)c(OC)cc1CC2 [Compound 82, (3,3-Dimethyl-morpholin-4-yl)-[8-isopropoxy-7-methoxy-1-(3-methoxy-propyl)-4,5-dihydro-imidazo[1,5-a]quinolin-3-yl]-methanone]
> 5 µM | COc1cc2c(cc1OC(C)C)-n1c(-c3cn(C)nc3C)nc(C(=O)N3CCOCC3(C)C)c1CC2 [Compound 36]
0.1 to 1 µM | COc1cc2c(cc1OC(C)C)-n1c(-c3cc(C(F)(F)F)cc(C(F)(F)F)c3)nc(C(=O)N3CCOCC3(C)C)c1CC2 [Compound 119]
> 5 µM | COc1cc2c(cc1OC(C)C)-n1c(C3CCCCO3)nc(C(=O)N3CCOCC3(C)C)c1CC2 (stereo not shown) [Compound 85, (3,3-Dimethyl-morpholin-4-yl)-[8-isopropoxy-7-methoxy-1-(tetrahydro-pyran-2-yl)-4,5-dihydro-imidazo[1,5-a]quinolin-3-yl]-methanone]
1 to 5 µM | COc1cc2c(cc1OC(C)C)-n1c(-c3ccc(C#N)c(C(F)(F)F)c3)nc(C(=O)N3CCOCC3(C)C)c1CC2 [Compound 124]
< 0.1 µM | [2H]C([2H])([2H])N(C(=O)c1nc(-c2cccs2)n2c1CCc1cc(OC)c(CC(C)C)cc1-2)C1(C)COC1 [Compound 58, 8-Isobutyl-7-methoxy-1-thiophen-2-yl-4,5-dihydro-imidazo[1,5-a]quinoline-3-carboxylic acid methyl-d3-(3-methyl-oxetan-3-yl)-amide]

Reference: US10138233B2, “Imidazole compounds as modulators of FSHR and uses thereof” (Merck Patent GmbH, priority 2013, dated 2018)
